Reference: patent US10479780B2, “Aminopyrazole derivatives” (Chugai Seiyaku Kabushiki Kaisha, priority 2015, dated 2019)
Like-named read-outs stand apart in the source and are kept apart here.

Legend:
Type in all cases: biochemical
[1] = molecular target: T1, human Lck enzyme (Homo sapiens, UniProt P06239); assay: Lck enzyme inhibitory activity (time-resolved fluorometry, biotinylated peptide phosphorylation); details: read-out: LCK_IC50
T1 construct: purchased Carna Biosciences, Inc. 08-170
Method in brief: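 Readout pairs a europium cryptate-labelled anti-phosphotyrosine antibody with XL665-streptavidin, measured by time-resolved fluorescence. IC50 derived from percent inhibition against untreated controls.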

[2] = molecular target: T2, human Src enzyme (Homo sapiens, UniProt P12931); assay: Src enzyme inhibitory activity (time-resolved fluorometry, biotinylated peptide phosphorylation); details: read-out: SRC_IC50
T2 construct: purchased Carna Biosciences, Inc. 08-173
Method in brief: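 Compounds were tested for blocking tyrosine phosphorylation of a biotinylated peptide substrate by recombinant human Src. Phosphorylated product was quantified by time-resolved fluorometry using europium cryptate and XL665 conjugates, and IC50 was calculated against the compound-free control.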

[3] = molecular target: T3, human Yes1 enzyme (Homo sapiens, UniProt P07947); assay: Yes1 enzyme inhibitory activity (time-resolved fluorometry, biotinylated peptide phosphorylation); details: read-out: YES_IC50
T3 construct: made in house
Method in brief: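 Inhibition was expressed against a compound-free control to give IC50, using TR-FRET read-out (Eu-cryptate anti-pTyr antibody, streptavidin-XL665).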

[4] = biotinylated peptide phosphorylation

T1 sequence (P06239 whole entry): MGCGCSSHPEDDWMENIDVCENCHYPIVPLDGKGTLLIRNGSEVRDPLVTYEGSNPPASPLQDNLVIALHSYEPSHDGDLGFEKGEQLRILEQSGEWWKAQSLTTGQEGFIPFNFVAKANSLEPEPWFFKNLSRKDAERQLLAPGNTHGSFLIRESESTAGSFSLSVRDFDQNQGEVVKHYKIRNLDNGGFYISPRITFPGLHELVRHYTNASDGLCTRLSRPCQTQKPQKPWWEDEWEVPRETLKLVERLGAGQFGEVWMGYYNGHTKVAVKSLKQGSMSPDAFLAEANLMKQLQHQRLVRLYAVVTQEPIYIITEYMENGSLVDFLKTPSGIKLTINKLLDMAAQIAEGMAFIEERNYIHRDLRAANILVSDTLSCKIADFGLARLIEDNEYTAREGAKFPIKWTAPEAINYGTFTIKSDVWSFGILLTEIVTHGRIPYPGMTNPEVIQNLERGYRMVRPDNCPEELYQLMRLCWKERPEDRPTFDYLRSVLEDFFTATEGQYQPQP
T3 sequence (P07947 whole entry): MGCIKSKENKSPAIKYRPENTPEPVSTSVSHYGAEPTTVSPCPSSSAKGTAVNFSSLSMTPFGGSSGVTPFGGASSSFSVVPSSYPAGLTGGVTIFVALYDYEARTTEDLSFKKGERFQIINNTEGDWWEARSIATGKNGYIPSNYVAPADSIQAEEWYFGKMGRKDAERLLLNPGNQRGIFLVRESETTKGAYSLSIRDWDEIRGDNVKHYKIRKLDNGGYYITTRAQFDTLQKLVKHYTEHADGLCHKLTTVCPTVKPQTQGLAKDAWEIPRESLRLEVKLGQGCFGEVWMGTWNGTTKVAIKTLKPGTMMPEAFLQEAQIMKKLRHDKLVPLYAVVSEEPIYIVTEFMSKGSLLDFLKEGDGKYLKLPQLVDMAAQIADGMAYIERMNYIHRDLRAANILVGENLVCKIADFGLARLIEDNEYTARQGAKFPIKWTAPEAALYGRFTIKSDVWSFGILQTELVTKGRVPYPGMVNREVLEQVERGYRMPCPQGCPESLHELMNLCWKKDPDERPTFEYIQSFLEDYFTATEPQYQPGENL
T2 sequence (P12931 whole entry): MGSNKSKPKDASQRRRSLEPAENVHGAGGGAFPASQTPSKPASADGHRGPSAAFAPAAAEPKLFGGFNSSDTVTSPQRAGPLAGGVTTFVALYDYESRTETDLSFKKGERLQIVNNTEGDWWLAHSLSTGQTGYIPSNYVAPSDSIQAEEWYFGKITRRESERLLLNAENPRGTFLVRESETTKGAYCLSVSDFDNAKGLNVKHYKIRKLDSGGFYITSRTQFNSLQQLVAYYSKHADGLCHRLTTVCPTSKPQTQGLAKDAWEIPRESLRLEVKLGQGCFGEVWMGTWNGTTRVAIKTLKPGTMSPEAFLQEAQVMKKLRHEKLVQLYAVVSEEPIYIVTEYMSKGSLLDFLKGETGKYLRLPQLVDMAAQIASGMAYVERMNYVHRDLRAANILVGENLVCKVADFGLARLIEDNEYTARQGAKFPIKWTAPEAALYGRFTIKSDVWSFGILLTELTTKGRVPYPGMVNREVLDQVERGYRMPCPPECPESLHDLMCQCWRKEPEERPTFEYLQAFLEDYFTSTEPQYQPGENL

Structure (SMILES)	IC50 [1, 4]	IC50 [2, 4]	IC50 [3, 4]	IC50 [1]	IC50 [2]	IC50 [3]
Cc1cc(Oc2ccccc2Cl)cc(F)c1-n1ncc(C(=O)c2cc3cc(Cl)c(NS(C)(=O)=O)cc3[nH]2)c1N [Example 4-2-082, N-[2-[5-amino-1-[4-(2-chlorophenoxy)-2-fluoro-6-methylphenyl]pyrazole-4-carbonyl]-5-chloro-1H-indol-6-yl]methanesulfonamide]	160 nM	310 nM	22 nM			
Cc1cc(Oc2ccccc2F)ncc1-n1ncc(C(=O)c2cc3cc(OC(F)F)c(N4CCCS4(=O)=O)cc3[nH]2)c1N [Example 4-25-004, [5-amino-1-[6-(2-fluorophenoxy)-4-methylpyridin-3-yl]pyrazol-4-yl]-[5-(difluoromethoxy)-6-(1,1-dioxo-1,2-thiazolidin-2-yl)-1H-indol-2-yl]methanone]	8.7 nM	48 nM	1 nM			
Cc1cc(-n2ncc(C(=O)c3cc4cc(N5CCOCC5)c(N5CCOC5=O)cc4[nH]3)c2N)ccc1Oc1ccccc1F [Example 5-1-160, 3-[2-[5-amino-1-[4-(2-fluorophenoxy)-3-methylphenyl]pyrazole-4-carbonyl]-5-morpholin-4-yl-1H-indol-6-yl]-1,3-oxazolidin-2-one]				33 nM	230 nM	0.71 nM
Cc1cc2cc(C(=O)c3cnn(-c4cnc(Oc5c(F)cccc5F)cc4C)c3N)[nH]c2cc1N1CCOCC1 [Example 4-2-124, [5-amino-1-[6-(2,6-difluorophenoxy)-4-methylpyridin-3-yl]pyrazol-4-yl]-(5-methyl-6-morpholin-4-yl-1H-indol-2-yl)methanone]	6.9 nM	34 nM	4.1 nM			
Cc1cc(Oc2ccccc2Cl)cc(F)c1-n1ncc(C(=O)c2cc3cc(F)c(NS(C)(=O)=O)cc3[nH]2)c1N [Example 4-7-009, N-[2-[5-amino-1-[4-(2-chlorophenoxy)-2-fluoro-6-methylphenyl]pyrazole-4-carbonyl]-5-fluoro-1H-indol-6-yl]methanesulfonamide]	34 nM	150 nM	3.7 nM			
Cc1cc2cc(C(=O)c3cnn(-c4cnc(Oc5ccccc5Cl)cc4C)c3N)[nH]c2cc1NS(C)(=O)=O [Example 4-2-063, N-[2-[5-amino-1-[6-(2-chlorophenoxy)-4-methylpyridin-3-yl]pyrazole-4-carbonyl]-5-methyl-1H-indol-6-yl]methanesulfonamide]	8.3 nM	78 nM	2 nM			
Cc1cc(Oc2ccccc2F)ncc1-n1ncc(C(=O)c2cc3cc(F)c(NS(=O)(=O)c4cccc(F)c4)cc3[nH]2)c1N [Example 5-1-554, N-[2-[5-amino-1-[6-(2-fluorophenoxy)-4-methylpyridin-3-yl]pyrazole-4-carbonyl]-5-fluoro-1H-indol-6-yl]-3-fluorobenzenesulfonamide]	260 nM	1500 nM	13 nM			
Cc1cc2cc(C(=O)c3cnn(-c4cnc(Oc5c(F)cccc5F)cc4C)c3N)[nH]c2cc1N1C(=O)NC2(CCCCC2)C1=O [Example 5-1-316, 3-[2-[5-amino-1-[6-(2,6-difluorophenoxy)-4-methylpyridin-3-yl]pyrazole-4-carbonyl]-5-methyl-1H-indol-6-yl]-1,3-diazaspiro[4.5] decane-2,4-dione]				29 nM	170 nM	6.2 nM
Cc1cc(-n2ncc(C(=O)c3cc4cc(OCC(F)F)c(N5CCN(S(C)(=O)=O)CC5)cc4[nH]3)c2N)ccc1Oc1ccccc1F [Example 5-1-171, [5-amino-1-[4-(2-fluorophenoxy)-3-methylphenyl]pyrazol-4-yl]-[5-(2,2-difluoroethoxy)-6-(4-methylsulfonylpiperazin-1-yl)-1H-indol-2-yl]methanone]				49 nM	79 nM	1.1 nM
Cc1cc(Oc2cccc(F)c2F)ncc1-n1ncc(C(=O)c2cc3cc(F)c(NS(C)(=O)=O)cc3[nH]2)c1N [Example 4-2-032, N-[2-[5-amino-1-[6-(2,3-difluorophenoxy)-4-methylpyridin-3-yl]pyrazole-4-carbonyl]-5-fluoro-1H-indol-6-yl]methanesulfonamide]	27 nM	92 nM	3.5 nM			
Cc1cc(Oc2ccccc2F)ccc1-n1ncc(C(=O)c2cc3cc(OCC(F)F)c(NC(=O)OCC4c5ccccc5-c5ccccc54)cc3[nH]2)c1N [Example 5-1-279, 9H-fluoren-9-ylmethyl N-[2-[5-amino-1-[4-(2-fluorophenoxy)-2-methylphenyl]pyrazole-4-carbonyl]-5-(2,2-difluoroethoxy)-1H-indol-6-yl] carbamate]				170 nM	910 nM	14 nM
COc1ccc(Cl)c(S(=O)(=O)Nc2cc3[nH]c(C(=O)c4cnn(-c5ccc(Oc6ccccc6F)cc5C)c4N)cc3cc2OCC(F)F)c1 [Example 5-1-331, N-[2-[5-amino-1-[4-(2-fluorophenoxy)-2-methylphenyl]pyrazole-4-carbonyl]-5-(2,2-difluoroethoxy)-1H-indol-6-yl]-2-chloro-5-methoxybenzenesulfonamide]				180 nM	330 nM	7 nM
